What was measured:
[1] = system: p-Bcr-Abl in KCL-22 CML cells; assay: Western blot p-Bcr-Abl, KCL-22 CML cells; assay type: cell-based, human; settings: 4 hours
Method: (§1) Human KCL-22 CML cells were obtained from the American Type Culture Collection (ATCC). Cells were cultured in RPMI-1640 media containing 10% fetal bovine serum (FBS). Imatinib-resistant human KCL-22 CML cells expressing the T315I mutant Bcr-Abl (KCL-22M) were derived from human KCL-22 CML cells (Yuan et al., 2010). Cells were grown in RPMI 1640 media supplemented with 10% FBS. Monoclonal antibodies to Abl protein and phosphotyrosine (p-Y) were obtained from BD Biosciences (San Diego, Calif.). Polyclonal antibodies to p-Stat5 (Y694) and p-Src family (Y419) were obtained from Cell Signaling Technologies (Cambridge, Mass.). Polyclonal antibodies to Stat5 were from Santa Cruz Biotechnology (Santa Cruz, Calif.). Monoclonal antibody to Src was obtained from Millipore (Billerica, Mass.).
(§2) Western analyses were performed as described previously with minor modification (Nam et al., 2005b). Briefly, KCL-22 CML and T315I KCL-22 CML cells were treated with IRDs. Whole-cell lysates were resolved by SDS-PAGE and immunoblotted with specific antibodies. Primary phospho-specific antibodies were incubated in TBS (pH 7.5) with 0.1% Tween-20 and 5% BSA with gentle agitation overnight at 4° C. […] Positive immuno-reactive proteins were detected using the ECL system (Pierce, Rockford, Ill.). […]

[2] = system: p-Src in KCL-22 CML cells; assay: Western blot p-Src, KCL-22 CML cells; assay type: cell-based, human; settings: 1.0 μM
Method: as §1, §2

[3] = system: p-Src in T315I KCL-22 CML cells; assay: Western blot p-Src, T315I KCL-22 CML cells; assay type: cell-based, human; settings: 1.0 μM
Method: as §1, §2

[4] = molecular target: ABL1 (Homo sapiens, UniProt P00519); assay: in vitro kinase assay, recombinant ABL1; assay type: biochemical; settings: ABL versus Src, higher concentration for ABL
Method: The in vitro kinase assays of an IRD (IRD Nos. 10, 11, 13, 61, 70, 71, 79, 80, 83˜87 and 176) were carried out using recombinant proteins according to the procedure disclosed in Nam 2012 (Nam, S., Xie, J., Perkins, A., Ma, Y., Yang, F., Wu, J., Wang, Y., Xu, R. Z., Huang, W., Horne, D. A., and Jove, R. (2012) Novel synthetic derivatives of the natural product berbamine inhibit Jak2/Stat3 signaling and induce apoptosis of human melanoma cells, Molecular oncology), which is hereby incorporated by reference in its entirety, as if fully set forth herein.

[5] = system: p-Bcr-Abl in T315I KCL-22 CML cells; assay: Western blot p-Bcr-Abl, T315I KCL-22 CML cells; assay type: cell-based, human; settings: 4 hours
Method: as §1, §2

[6] = system: p-Stat5 (Y694) in KCL-22 CML cells; assay: Western blot p-Stat5, KCL-22 CML cells; assay type: cell-based, human; settings: 4 hours
Method: as §1, §2

[7] = system: p-Stat5 (Y694) in T315I KCL-22 CML cells; assay: Western blot p-Stat5, T315I KCL-22 CML cells; assay type: cell-based, human; settings: 4 hours
Method: as §1, §2

[8] = system: Imatinib-resistant human KCL-22 CML cells expressing the T315I mutant Bcr-Abl; assay: Drug resistance of imatinib-resistant T315I KCL-22 CML cells; assay type: cell-based

ABL1, sequence (P00519 whole entry): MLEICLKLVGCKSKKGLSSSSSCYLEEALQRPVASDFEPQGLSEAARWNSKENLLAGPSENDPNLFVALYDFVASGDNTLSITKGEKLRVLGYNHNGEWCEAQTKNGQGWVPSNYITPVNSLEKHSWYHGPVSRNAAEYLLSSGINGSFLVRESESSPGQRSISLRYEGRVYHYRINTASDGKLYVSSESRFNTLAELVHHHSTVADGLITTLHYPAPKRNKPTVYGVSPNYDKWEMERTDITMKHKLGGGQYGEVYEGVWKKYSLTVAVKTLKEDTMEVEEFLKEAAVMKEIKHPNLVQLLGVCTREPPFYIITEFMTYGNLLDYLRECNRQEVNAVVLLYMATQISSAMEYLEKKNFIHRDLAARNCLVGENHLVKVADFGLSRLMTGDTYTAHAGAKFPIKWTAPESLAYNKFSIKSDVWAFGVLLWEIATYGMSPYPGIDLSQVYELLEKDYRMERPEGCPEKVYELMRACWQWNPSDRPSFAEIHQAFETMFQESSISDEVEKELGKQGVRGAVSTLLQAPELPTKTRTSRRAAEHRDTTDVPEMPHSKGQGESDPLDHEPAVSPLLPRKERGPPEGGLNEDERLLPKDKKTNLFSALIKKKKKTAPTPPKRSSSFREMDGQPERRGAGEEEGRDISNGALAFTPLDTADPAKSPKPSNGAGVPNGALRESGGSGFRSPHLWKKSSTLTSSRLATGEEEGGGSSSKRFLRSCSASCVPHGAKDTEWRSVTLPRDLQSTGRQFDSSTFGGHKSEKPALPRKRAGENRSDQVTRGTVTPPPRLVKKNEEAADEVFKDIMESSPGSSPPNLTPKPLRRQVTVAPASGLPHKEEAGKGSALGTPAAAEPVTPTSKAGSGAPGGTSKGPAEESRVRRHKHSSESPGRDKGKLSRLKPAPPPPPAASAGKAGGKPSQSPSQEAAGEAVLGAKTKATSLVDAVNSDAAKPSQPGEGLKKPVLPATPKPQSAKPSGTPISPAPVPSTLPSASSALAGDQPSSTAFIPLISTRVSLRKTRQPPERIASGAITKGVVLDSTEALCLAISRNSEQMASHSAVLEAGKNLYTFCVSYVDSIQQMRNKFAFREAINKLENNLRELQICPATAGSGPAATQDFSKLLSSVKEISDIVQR

Row | Structure (SMILES) | concentration that reduced levels of p-Bcr-Abl [1] | autophosphorylation of Src [2] | autophosphorylation of Src [3] | concentration inhibiting ABL kinase activity relative to Src kinase activity in vitro [4] | concentration that reduced levels of p-Bcr-Abl [5] | tyrosyl phosphorylation of Stat5 ([6]; 5 μM) | total Stat5 levels [6] | tyrosyl phosphorylation of Stat5 ([7]; 5 μM) | total Stat5 levels [7] | resistance of the cells to the drug [8]
1 | Cl.Cl.O=C1Nc2cc(Br)ccc2C1=C1Nc2ccccc2C1=NOCCN1CCNCC1 [compound 87] | higher than 0.5 μM | strong reduction | strong reduction | about 15 fold | higher than 0.5 μM | substantially inhibited | unchanged | substantially inhibited | unchanged | –
2 | Cc1cn(-c2cc(NC(=O)c3ccc(C)c(Nc4nccc(-c5cccnc5)n4)c3)cc(C(F)(F)F)c2)cn1 [nilotinib] | – | – | – | – | – | – | – | – | – | resist

Reference: patent US11524937B2, “Indirubin derivatives, and uses thereof” (CITY OF HOPE, priority 2012, dated 2022)
